Assay [1] deals with T1, reverse transcriptase of HIV (HTLV-III/LAV) (Human immunodeficiency virus type 1 group M subtype B, UniProt P03366).
T1 construct: reverse transcriptase from HIV (HTLV-III/LAV)
Nature of the assay: Cell-free assay of HIV reverse transcriptase. The format is biochemical. The method, then:
A cell-free assay system has been used to investigate the inhibition of 3′-deoxy-3′-fluorothymidine on reverse transcriptase of HIV (HTLV-III/LAV). The assay was performed as described by Vrang et Öberg, Antimicrob. Agents Chemother. 29, 867-872 (1986). With this assay the 3′-deoxy-3′-fluoro-thymidine-5′-triphosphate has been tested, instead of the prodrug 3′-deoxy-3′-fluorothymidine to evaluate its potential against reverse transcriptase from HIV (HTLV-III/LAV).

Assay [2] has as its target DNA polymerase of hepatitis B virus (HBV) (Hepatitis B virus genotype D subtype ayw, UniProt P03156). Put plainly: biochemical. To be noted: 3 hours incubation at 37° C., cpm vs water control. The text has this: Since hepatitis B virus cannot be grown in cell cultures, a cell-free assay system of the hepatitis B virus DNA polymerase has been used to investigate the effect of 3′-deoxy-3′-fluorothymidine. 3′-Deoxy-3′-fluorothymidine in cells is transformed to 3′-deoxy-3′-fluorothymidine-5′-triphosphate.
The HBV associated DNA polymerase activity can be measured in vitro (Kaplan et al., J. Virol., 12, 995-1005, 1973). A slight modification of this method has been used to test the substance for inhibition of this DNA polymerase activity. (Nordenfelt E., Öberg, B., Helgstrand E. and Miller E. Acta path., Microbiol. Scand. Sect B, 88:169-175, 1980). With this assay the 3′-deoxy-3′-fluorothymidine-5′-triphosphate has been tested, instead of the prodrug 3′-deoxy-3′-fluorothymidine, to evaluate its potential against hepatitis B virus DNA polymerase.
3′-deoxy-3′-fluorothymidine-5′-triphosphate was added to the final concentrations of 0.01 μM, 0.05 μM, 0.1 μM, 0.5 μM and 1.0 μM in the reaction mixture. The inhibition is calculated after 3 hours incubation at 37° C. and based on cpm compared to control with added water.

Assay [3] deals with HIV (HTLV-III/LAV) in H9 cells. Nature of the assay: Expressed reverse transcriptase activity in HIV-infected H9 cell cultures. It is filed as cell-based.
Procedure: The cells were then pelleted and dispersed in 2.5 ml phosphate buffered saline (PBS) including 2 μg/ml Polybrene. After incubation for 30 min the cells were pelleted and infected with HIV. After an adsorption period of 1 hour the cells were pelleted and washed once with 2.5 ml PBS. […] Samples for reverse transcriptase activity tests were taken as indicated.
1.3 ml samples from the supernatant of each culture were centrifuged at 18 000 rpm in a 55-34 rotor for 1.5 hours and the virus pellet resuspended in 100 μl buffer containing 50 mM Tris-HCl, pH 7.5; 35 mM KCl; 4 mM DTT; 1 mM EDTA; 1.3% Triton X-100. 50 μl samples were taken to the reverse transcriptase activity tests and analyzed in a 100 μl reaction mixture containing 75 mM Tris-HCl, pH 8.0; 60 mM KCl; 6.2 mM MgCl2; 6 mM DTT; 0.5 mM EDTA; 0.65% Triton X-100, 100 μg/ml BSA; 25 μCi/ml ^3H-dTTP (spec activity 80 Ci/mmol); 2.5 μg/ml (dT)12-18; and 2.0 μg/ml (rA)n. Incubation was for 1 hour at 37° C. and the TCA-insoluble product precipitated onto Whatman GF/A filter papers, washed and dried, and counted in a liquid scintillation counter.
The amounts of reverse transcriptase molecules and their total activity expressed in HIV-infected cell cultures is correlated to the amount of HIV particles present. The addition of an effective antiviral agent which inhibits the production of new HIV particles, also decreases the amount of reverse transcriptase molecules and is expressed as a decreased total activity.

The record followed here is US6358934B1, “Anti-retroviral activity of 2′,3′-dideoxy-3′-fluoronucleosides” (Medivir AB, priority 1986, dated 2002).

DNA polymerase of hepatitis B virus (HBV), sequence (P03156 whole entry): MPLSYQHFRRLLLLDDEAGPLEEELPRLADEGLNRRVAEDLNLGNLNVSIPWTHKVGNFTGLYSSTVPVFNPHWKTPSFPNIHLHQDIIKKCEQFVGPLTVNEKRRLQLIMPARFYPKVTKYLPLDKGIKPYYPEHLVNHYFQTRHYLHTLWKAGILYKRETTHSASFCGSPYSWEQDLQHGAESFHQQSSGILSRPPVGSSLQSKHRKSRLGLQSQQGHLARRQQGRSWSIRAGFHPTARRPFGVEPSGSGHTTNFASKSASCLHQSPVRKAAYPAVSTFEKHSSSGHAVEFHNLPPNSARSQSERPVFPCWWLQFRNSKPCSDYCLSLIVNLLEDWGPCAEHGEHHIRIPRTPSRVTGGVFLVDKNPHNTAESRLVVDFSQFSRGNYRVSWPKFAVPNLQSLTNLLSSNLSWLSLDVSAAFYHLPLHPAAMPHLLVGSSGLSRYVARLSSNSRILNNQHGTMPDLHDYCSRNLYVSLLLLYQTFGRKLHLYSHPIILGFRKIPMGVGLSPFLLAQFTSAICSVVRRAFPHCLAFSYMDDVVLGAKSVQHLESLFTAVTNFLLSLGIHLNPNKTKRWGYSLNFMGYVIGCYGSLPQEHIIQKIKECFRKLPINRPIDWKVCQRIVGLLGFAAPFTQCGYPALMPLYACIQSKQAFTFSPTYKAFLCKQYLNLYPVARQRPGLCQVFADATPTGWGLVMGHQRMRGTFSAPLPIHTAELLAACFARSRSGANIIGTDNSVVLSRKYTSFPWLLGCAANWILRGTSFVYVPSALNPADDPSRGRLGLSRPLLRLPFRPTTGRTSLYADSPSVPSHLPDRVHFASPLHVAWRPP

For `Cc1cn([C@H]2C[C@H](F)[C@@H](COP(=O)(O)OP(=O)(O)OP(=O)(O)O)O2)c(=O)[nH]c1=O` [3′-deoxy-3′-fluorothymidine-5′-triphosphate], the “% inhibition of HIV (HTLV-III/LAV) reverse transcriptase” value in assay [1] (0.01 μM) stood at 12%; in assay [1] (0.05 μM), 27%; in assay [1] (0.1 μM), 38%. Further, the inhibition at 0.01 µM in assay [2] (0.01 μM) came out at 17%. In assay [2] (0.05 μM), this molecule yielded an inhibition at 0.05 µM of 17%. Moreover, in assay [2] (0.1 μM), the inhibition at 0.1 µM was determined as 39%. Also, the inhibition at 0.5 µM in assay [2] (0.5 μM) worked out at 79%.
In the case of `Cc1cn([C@H]2C[C@H](F)[C@@H](CO)O2)c(=O)[nH]c1=O` [3′-deoxy-3′-fluorothymidine], the Reverse transcriptase activity in assay [3] (0.01 μM, 4 days post-infection, 0 μM control 0.9) was 0.5 cpm × 10^−3; in assay [3] (0.01 μM, 8 days post-infection, 0 μM control 19) it was 1.3 cpm × 10^−3; in assay [3] (0.01 μM, 11 days post-infection, 0 μM control 17), 1.9 cpm × 10^−3; in assay [3] (0.01 μM, 15 days post-infection, 0 μM control 11), 2.7 cpm × 10^−3; in assay [3] (0.01 μM, 18 days post-infection, 0 μM control 27), 28 cpm × 10^−3; in assay [3] (0.01 μM, 22 days post-infection, 0 μM control 46), 52 cpm × 10^−3. The Reverse transcriptase activity in assay [3] (0.01 μM, 29 days post-infection, 0 μM control 16) was determined as 21 cpm × 10^−3; in assay [3] (0.05 μM, 4 days post-infection, 0 μM control 0.9), 0.3 cpm × 10^−3; in assay [3] (0.05 μM, 8 days post-infection, 0 μM control 19), 0.3 cpm × 10^−3; in assay [3] (0.05 μM, 11 days post-infection, 0 μM control 17) it was 0.4 cpm × 10^−3; in assay [3] (0.05 μM, 15 days post-infection, 0 μM control 11), 0.6 cpm × 10^−3; in assay [3] (0.05 μM, 18 days post-infection, 0 μM control 27), 0.5 cpm × 10^−3. Besides, the Reverse transcriptase activity is 1.6 cpm × 10^−3 in assay [3] (0.05 μM, 22 days post-infection, 0 μM control 46); 3.1 cpm × 10^−3 in assay [3] (0.05 μM, 29 days post-infection, 0 μM control 16); 0.2 cpm × 10^−3 in assay [3] (0.1 μM, 4 days post-infection, 0 μM control 0.9); 0.2 cpm × 10^−3 in assay [3] (0.1 μM, 8 days post-infection, 0 μM control 19); 0.5 cpm × 10^−3 in assay [3] (0.1 μM, 11 days post-infection, 0 μM control 17); 0.4 cpm × 10^−3 in assay [3] (0.1 μM, 15 days post-infection, 0 μM control 11). Further, the Reverse transcriptase activity in assay [3] (0.1 μM, 18 days post-infection, 0 μM control 27) was found to be 0.4 cpm × 10^−3; in assay [3] (0.1 μM, 22 days post-infection, 0 μM control 46), 0.2 cpm × 10^−3; in assay [3] (0.1 μM, 29 days post-infection, 0 μM control 16), 0.2 cpm × 10^−3; in assay [3] (0.5 μM, 4 days post-infection, 0 μM control 0.9), 0.3 cpm × 10^−3; in assay [3] (0.5 μM, 8 days post-infection, 0 μM control 19), 0.3 cpm × 10^−3; in assay [3] (0.5 μM, 11 days post-infection, 0 μM control 17) it was 0.5 cpm × 10^−3. Also, the Reverse transcriptase activity was found to be 0.3 cpm × 10^−3 in assay [3] (0.5 μM, 15 days post-infection, 0 μM control 11); 0.6 cpm × 10^−3 in assay [3] (0.5 μM, 18 days post-infection, 0 μM control 27); 0.1 cpm × 10^−3 in assay [3] (0.5 μM, 22 days post-infection, 0 μM control 46); 0.2 cpm × 10^−3 in assay [3] (0.5 μM, 29 days post-infection, 0 μM control 16); 0.3 cpm × 10^−3 in assay [3] (1.0 μM, 4 days post-infection, 0 μM control 0.9); 0.2 cpm × 10^−3 in assay [3] (1.0 μM, 8 days post-infection, 0 μM control 19). Besides, the Reverse transcriptase activity in assay [3] (1.0 μM, 11 days post-infection, 0 μM control 17) was determined as 0.5 cpm × 10^−3; in assay [3] (1.0 μM, 15 days post-infection, 0 μM control 11), 0.4 cpm × 10^−3; in assay [3] (1.0 μM, 18 days post-infection, 0 μM control 27), 0.5 cpm × 10^−3; in assay [3] (1.0 μM, 22 days post-infection, 0 μM control 46), 0.1 cpm × 10^−3; in assay [3] (1.0 μM, 29 days post-infection, 0 μM control 16) it was 0.2 cpm × 10^−3. Also, the “effect on reverse transcriptase activity of HIV in infected H9 cells (in words)” value in assay [3] (0.01 μM, up to 11 days) is recorded as “enzyme activity was not detected”; in assay [3] (0.05 μM, up to 22 days) it was “no significant enzyme activity was detected”; in assay [3] (0.1 μM and higher concentrations, during at least 29 days) it was “completely prevents the enzyme activity”.

As usually defined, the inhibition is the drop in the measured response relative to a control, in per cent. Read a low inhibition as a response near the control.
